Measurements: patent publication US20170065593A1, “Combination” (Novartis AG, priority 2009, published 2017)
Like-named read-outs stand apart in the source and are kept apart here.

Assays:
95 cancer cell lines = system: 95 cancer cell lines
Description: (Compound A) or mTOR inhibitor (mTORi, Rapamycin) alone or a combination of both agents at a ratio of 1:2 (MEKi:mTORi) and cell proliferation/death was measured after 3 day drug exposure. Briefly, cells were plated in 384-well plates at 500 cells/well in culture media appropriate for each cell type, supplemented with 10% FBS and 1% penicillin/streptomycin, and incubated overnight at 37° C., 5% CO2. […] (two fold dilutions ranging from 7.3 uM-0.014 nM) or with mTOR inhibitor (two fold dilutions ranging from 14.6 uM-0.112 nM) or in combination with both compounds and incubated for 72 hours. Cell growth was measured using the CellTiterGlo (CTG) reagent (Promega) according to the manufacturer's protocol. Data were analyzed using the XLfit (IDBS Ltd.) curve-fitting tool for Microsoft Excel. Growth IC50 (gIC50) and Ymin values were generated using a four-parameter curve fit algorithm (XLFit algorithm #205).
Results were expressed as a percent of the t=0 and plotted against the compound concentration. The T=0 value is normalized to 100% and represents the number of cells at the time of compound addition. […] Formula below was used to calculate mutually exclusive combination index (CI). Data were reported as log CI, where the logarithm value of CI was calculated.
CI=IC50 of a+b/IC50 of a+IC50 of b+a/IC50 of b
Synergy is defined as CI<1, additivity as CI=1 and antagonism as CI>1. Considering the variability of these proliferation assays we arbitrarily defined log CI>0.1 as antagonism, between −0.1 and 0.1 as no significant effect and <−0.1 as synergy.

[1] = system: A549 lung cancer cell line; assay: Assay 2: cell growth (CellTiterGlo, 72 hours), Ymin; format: cell-based; conditions: percent of T=0 (T=0 = 100%)
Description: FIG. 5 depicts the effect of MEK inhibitor, mTOR inhibitor and their combination on A549 lung cancer cell line growth. […] Cells were treated with MEK inhibitor (two fold dilutions ranging from 7.3 uM-0.014 nM) or with mTOR inhibitor (two fold dilutions ranging from 14.6 uM-0.112 nM) or in combination with both compounds and incubated for 72 hours. Cell growth was measured using the CellTiterGlo (CTG) reagent (Promega) according to the manufacturer's protocol. Data were analyzed using the XLfit (IDBS Ltd.) curve-fitting tool for Microsoft Excel. Growth IC50 (gIC50) and Ymin values were generated using a four-parameter curve fit algorithm (XLFit algorithm #205). Results were expressed as a percent of the t=0 and plotted against the compound concentration. […] Formula below was used to calculate mutually exclusive combination index (CI). Data were reported as log CI, where the logarithm value of CI was calculated. […] Similar analysis was performed for all cell lines and Ymin results are depicted in FIG. 6.

In the case of `CO[C@H]1C[C@@H]2CC[C@@H](C)[C@@](O)(O2)C(=O)C(=O)N2CCCC[C@H]2C(=O)O[C@H]([C@H](C)C[C@@H]2CC[C@@H](O)[C@H](OC)C2)CC(=O)[C@H](C)/C=C(\C)[C@@H](O)[C@@H](OC)C(=O)[C@H](C)C[C@H](C)/C=C/C=C/C=C/1C` [Rapamycin], the “% of cells with cytotoxic response” value (95 cancer cell lines; KRAS WT / PI3K WT cell lines) is reported as 10%, the “% of cells with cytotoxic response” value (95 cancer cell lines; KRAS WT / PI3K mutant cell lines) is reported as 5% and the “% of cells with cytotoxic response” value (95 cancer cell lines; KRAS WT cell lines) is reported as 10%. For the same compound, the “% of cells with cytotoxic response” value (95 cancer cell lines; KRAS mutant / PI3K WT cell lines) was 11%, the “% of cells with cytotoxic response” value (95 cancer cell lines; KRAS mutant / PI3K mutant cell lines) was 6% and the “% of cells with cytotoxic response” value (95 cancer cell lines; KRAS mutant cell lines) was 8%. For the same compound, the “% of cells with cytotoxic response” value (95 cancer cell lines; PI3K WT cell lines) was 8%, the “% of cells with cytotoxic response” value (95 cancer cell lines; PI3K mutant cell lines) was 12% and the “percentage of cell undergoing death (cytotoxic)” value (95 cancer cell lines; all cell lines, Ymin below T=0) was 9.5%. For the same compound, the “cell lines undergoing death” value (95 cancer cell lines; single agent, across KRAS and PI3K mutational subgroups) was ≤ 11% and the “Ymin (lower Y value at any compound concentration)” value [1] was 487%.
